Test results from PubChem BioAssay AID256 (DTP/NCI, 2004).
Where “and” joins values, the source holds several entries; their conditions need not be identical. Identical values can stand only once. Inconclusive results and toxic doses are left out. The calls were made as follows: active = survival T/C of 150% or more; inactive = T/C below 125% in these data.

Test system: CD2F1 mice, L1210 leukemia ip, survival T/C
Assay: NCI In Vivo Anticancer Drug Screen. Data for tumor model L1210 Leukemia (intraperitoneal) in CD2F1 (CDF1) mice
Details: higher = longer survival
Summary of the method: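 Tumor-bearing mice (transplanted tumor) were split into treated and vehicle control groups, and the measured endpoint of each treated group was divided by that of its vehicle controls.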

Measured: T/C

CC1OC(c2cnn(-c3ccccc3)n2)C(O)C1O (stereo unspecified)
inactive: endpoint: median survival time, dose: 12.5 mg/kg/injection, schedule: Q01DX005 (ip), vehicle: water 103 % of control | endpoint: median survival time, dose: 25.0 mg/kg/injection, schedule: Q01DX005 (ip), vehicle: water 102 % of control | endpoint: median survival time, dose: 50.0 mg/kg/injection, schedule: Q01DX005 (ip), vehicle: water 103 % of control | endpoint: median survival time, dose: 100.0 mg/kg/injection, schedule: Q01DX005 (ip), vehicle: water 100 % of control | endpoint: median survival time, dose: 200.0 mg/kg/injection, schedule: Q01DX005 (ip), vehicle: water 103 % of control

CC1(C)CC(OP(=O)(OC2CC(C)(C)N(O)C(C)(C)C2)N2CC2)CC(C)(C)N1O
inactive: endpoint: mean survival time, dose: 12.5 mg/kg/injection, schedule: Q01DX009 (ip), vehicle: water 102 % of control | endpoint: mean survival time, dose: 25.0 mg/kg/injection, schedule: Q01DX009 (ip), vehicle: water 113 % of control and 104 % of control | endpoint: mean survival time, dose: 50.0 mg/kg/injection, schedule: Q01DX009 (ip), vehicle: water 110 % of control | endpoint: mean survival time, dose: 100.0 mg/kg/injection, schedule: Q01DX009 (ip), vehicle: water 112 % of control

N#CCc1c(Cl)c(Cl)c(Cl)c(Cl)c1Cl
inactive: endpoint: mean survival time, dose: 100.0 mg/kg/injection, schedule: Q04DX003 (ip), vehicle: saline with Tween-80 103 % of control | endpoint: mean survival time, dose: 200.0 mg/kg/injection, schedule: Q04DX003 (ip), vehicle: saline with Tween-80 103 % of control | endpoint: mean survival time, dose: 400.0 mg/kg/injection, schedule: Q04DX003 (ip), vehicle: saline with Tween-80 102 % of control

CSc1nnc(Sc2ccccc2)c(SC)n1
inactive: endpoint: mean survival time, dose: 75.0 mg/kg/injection, schedule: Q01DX001 (ip), vehicle: saline 101 % of control | endpoint: mean survival time, dose: 150.0 mg/kg/injection, schedule: Q01DX001 (ip), vehicle: saline 98 % of control

CCC1CCC(NC(C)=O)CC1 (stereo unspecified)
inactive: endpoint: mean survival time, dose: 100.0 mg/kg/injection, schedule: Q01DX001 (ip), vehicle: saline with Tween-80 96 % of control

O=C1C(Cl)=C(Nc2cccc(Cl)c2)C(=O)c2ccccc21
inactive: endpoint: mean survival time, dose: 100.0 mg/kg/injection, schedule: Q04DX002 (ip), vehicle: other 90 % of control | endpoint: mean survival time, dose: 200.0 mg/kg/injection, schedule: Q04DX002 (ip), vehicle: other 94 % of control | endpoint: mean survival time, dose: 400.0 mg/kg/injection, schedule: Q04DX002 (ip), vehicle: other 105 % of control

O=[N+]([O-])c1ccc(/C=N\Nc2ccc([N+](=O)[O-])cn2)cc1
inactive: endpoint: mean survival time, dose: 50.0 mg/kg/injection, schedule: Q04DX003 (ip), vehicle: saline sonified 96 % of control | endpoint: mean survival time, dose: 100.0 mg/kg/injection, schedule: Q04DX003 (ip), vehicle: saline sonified 89 % of control | endpoint: mean survival time, dose: 200.0 mg/kg/injection, schedule: Q04DX003 (ip), vehicle: saline sonified 96 % of control

CN=C(N)N/N=C(\C)c1ccc2oc3ccc(/C(C)=N/NC(N)=NC)cc3c2c1
inactive: endpoint: median survival time, dose: 4.7 mg/kg/injection, schedule: Q01DX009 (ip), vehicle: saline with Tween-80 123 % of control | endpoint: median survival time, dose: 6.25 mg/kg/injection, schedule: Q01DX009 (ip), vehicle: saline with Tween-80 117 % of control | endpoint: median survival time, dose: 9.38 mg/kg/injection, schedule: Q01DX009 (ip), vehicle: saline with Tween-80 121 % of control | endpoint: median survival time, dose: 12.5 mg/kg/injection, schedule: Q01DX009 (ip), vehicle: saline with Tween-80 123 % of control | endpoint: median survival time, dose: 50.0 mg/kg/injection, schedule: Q01DX009 (ip), vehicle: saline with Tween-80 122 % of control | endpoint: median survival time, dose: 75.0 mg/kg/injection, schedule: Q01DX009 (ip), vehicle: saline with Tween-80 90 % of control

CC(C)(C)SC1C(O)C(CO)OC1n1ccc(Nc2ccccc2)nc1=O (stereo unspecified)
inactive: endpoint: median survival time, dose: 12.5 mg/kg/injection, schedule: Q01DX005 (ip), vehicle: saline with Tween-80 99 % of control | endpoint: median survival time, dose: 25.0 mg/kg/injection, schedule: Q01DX005 (ip), vehicle: saline with Tween-80 99 % of control | endpoint: median survival time, dose: 50.0 mg/kg/injection, schedule: Q01DX005 (ip), vehicle: saline with Tween-80 102 % of control | endpoint: median survival time, dose: 100.0 mg/kg/injection, schedule: Q01DX005 (ip), vehicle: saline with Tween-80 104 % of control | endpoint: median survival time, dose: 200.0 mg/kg/injection, schedule: Q01DX005 (ip), vehicle: saline with Tween-80 90 % of control

CC(C)NCC(O)COc1cccc2ccccc12 (stereo unspecified)
inactive: endpoint: mean survival time, dose: 4.0 mg/kg/injection, schedule: Q01DX009 (ip), vehicle: Klucel (hydroxypropylcellulose) (HPC) 94 % of control and 98 % of control and 103 % of control | endpoint: mean survival time, dose: 8.0 mg/kg/injection, schedule: Q01DX009 (ip), vehicle: Klucel (hydroxypropylcellulose) (HPC) 94 % of control and 95 % of control and 98 % of control | endpoint: mean survival time, dose: 16.0 mg/kg/injection, schedule: Q01DX009 (ip), vehicle: Klucel (hydroxypropylcellulose) (HPC) 91 % of control and 96 % of control and 101 % of control | endpoint: mean survival time, dose: 32.0 mg/kg/injection, schedule: Q01DX009 (ip), vehicle: Klucel (hydroxypropylcellulose) (HPC) 87 % of control and 93 % of control and 96 % of control | endpoint: mean survival time, dose: 64.0 mg/kg/injection, schedule: Q01DX009 (ip), vehicle: Klucel (hydroxypropylcellulose) (HPC) 84 % of control and 102 % of control and 105 % of control | endpoint: mean survival time, dose: 128.0 mg/kg/injection, schedule: Q01DX009 (ip), vehicle: Klucel (hydroxypropylcellulose) (HPC) 120 % of control

Cc1ccc(S(=O)(=O)NN=C2CC3CCC(C2)S3)cc1
inactive: endpoint: mean survival time, dose: 37.5 mg/kg/injection, schedule: Q01DX001 (ip), vehicle: saline with Tween-80 101 % of control | endpoint: mean survival time, dose: 75.0 mg/kg/injection, schedule: Q01DX001 (ip), vehicle: saline with Tween-80 104 % of control | endpoint: mean survival time, dose: 150.0 mg/kg/injection, schedule: Q01DX001 (ip), vehicle: saline with Tween-80 106 % of control
